Consider four compounds from patent US20260317367A1, “SALTS INCLUDING CRYSTALLINE SALTS OF 25-HYDROXY-CHOLEST-5-EN-3-SULFATE AND METHODS FOR PREPARING SAME” (Durect Corporation, priority 2022, published 2026).

Structures can show the parent of a compound that is named as a salt. Where two headings read alike, the source gives them in different places.

Format in all cases: physicochemical
A short description of series [1]: Solubility of 25HC3S salts after one day at room temperature (HPLC, as free acid). Particulars: one day; for Solubility in methanol (in words): MeOH; for Solubility in FaSSGF: Fasted State Simulated Gastric Fluid, pH 1.6, room temperature, LOD 0.0007 mg/mL. As to the method:
These fluids were prepared per the instruction listed by Biorelevant (Biorelevant.com). Each buffer concentrate was diluted with water and mixed well. FaSSIF, FeSSIF, FaSSGF powder was added to each buffer and mixed to completely dissolve the powder. Buffers were stored at room temperature and used within 48 hours of preparation.
(§1) 25HC3S salts were weighed in 8 mL or 4 mL glass vials with Teflon coated screw caps. Aliquots of each solvent were added to each sample and vortexed for about one minute until excess solid remained. Samples were placed on shaker at room temperature with 210 motion per minute shaking.
(§2) After one day, samples were pulled and checked if excess solid was present. About 1.5 mL aliquot of each sample was centrifuged at 12000 rpm for 12 to 15 minutes. […] Aliquots of the top clear solution of each centrifuged sample in MeOH, EtOH, IPA and ACN were diluted with diluent (water:MeOH 95:5) and assayed by HPLC. Samples of the salts in aqueous media were assayed by HPLC without dilution.
All solubility sample solutions of 25HC3S salts were determined using HPLC. A linear standard curve was constructed using standards with concentration between 11 μg/mL to 1.5 mg/mL as free acid forcing the curve to origin. Solubilities are reported as mg/mL free acid 25HC3S. Detection limit (LOD) of the HPLC method was calculated as 0.0007 mg/mL.

A short description of series [2]: Appearance (color, clumping, flowability) of stored 25HC3S salts. Here is the method: Approximately 25 mg of each crystalline 25HC3S salt was added to 20 mL glass vials and each powder weight was recorded. Four vials were prepared for each salt and stored at 2-8° C. or 80° C. according to Table B2. The samples were scheduled initially to pull for testing at 3 weeks and 6 weeks' time points.
For those […] salts, the remaining vials stored at 2-8° C. for 3 weeks were allocated for storage at 60° C. for 1 week. Additional stability data was generated according to Table B3.
For appearance, each unopened vial was visually examined for color, clumping, and flowability.

Series [3] in a line: Final pH of the solubility sample solutions in aqueous media. Particulars: for pH of the solubility sample, 0.9% Sodium Chloride: 0.9% sodium chloride (blank 5.8); for pH of the solubility sample, 5% Dextrose: 5% dextrose (blank 4.7); for pH of the solubility sample, FaSSGF: FaSSGF (blank 1.5, 1.6); for pH of the solubility sample, FaSSIF: FaSSIF (blank 6.5, 6.5); for pH of the solubility sample, FeSSIF: FeSSIF (blank 4.9, 5.0); for pH of the solubility sample, Water: water (blank 6.3). As to the method: as §1, §2
5.1 Solubility of 25HC3S Salts in Aqueous Media

Series [4] is described as follows: Differential scanning calorimetry (DSC), thermal decomposition / endothermic transition. Particulars: for First significant endothermic transition (DSC): indicative of thermal degradation or solid-state transformation; for Decomposition temperature (DSC): 10° C./min. As to the method:
Differential scanning calorimetry (DSC) is a thermoanalytical technique where the difference in the amount of heat required to increase the temperature of a sample and reference is measured as a function of temperature. Using this technique, phase transitions of a sample can be measured such as melting point. Decomposition can also be observed by DSC as can dehydration events. In the context of DSC measurements, there is also variability and the term “about” means ±1° C., and such variability is to be understood whether a DSC measurement is prefaced by “about” or not unless specified otherwise. Exemplary methods for collecting DSC data are set forth in Example 21. Thermogravimetric analysis, sometimes referred to as, thermal gravimetric analysis (TGA) is a thermal method of thermal analysis where the mass of a sample is measured as a function of time as the sample temperature changes. For example, when samples disclosed herein are heated and a loss in mass is measured prior to decomposition, this is likely indicative of the loss of water from the sample and may indicate that the sample being heated is a hydrate. Exemplary methods for collecting TGA are set forth in Example 23.
DSC was performed using a Mettler-Toledo DSC3+ differential scanning calorimeter. A tau lag adjustment is performed with indium, tin, and zinc. The temperature and enthalpy are adjusted with octane, phenyl salicylate, indium, tin and zinc. The adjustment is then verified with octane, phenyl salicylate, indium, tin, and zinc. The sample was placed into a hermetically sealed aluminum DSC pan, and the weight was accurately recorded. The pan was then inserted into the DSC cell. A weighed aluminum pan configured as the sample pan was placed on the reference side of the cell. The pan lid was pierced prior to sample analysis. Samples were analyzed from 30° C. to 350° C. or 30° C. to 250° C., both at 10° C./min.

Setting [5] is: room temperature, listed as crystalline 25HC3S diethanolamine.
Where [6] appears, read: listed as 25HC3S diethanolamine.
Setting [7] is: listed as 25HC3S t-butylammonium.
The mark [8] stands for this setting: room temperature, listed as crystalline 25HC3S magnesium.

As for `CC(CCCC(C)(C)O)C1CCC2C3CC=C4CC(OS(=O)(=O)O)CCC4(C)C3CCC12C` (stereo not shown) [Salt #10], in series [1] (room temperature), the “Solubility in FaSSGF (in words)” value is “high solubility”, the “Solubility in FaSSIF (in words)” value is “high solubility”, the “Solubility in FeSSIF (in words)” value was “high solubility” and the “Solubility in methanol (in words)” value is given as “did not reach saturation”. Also, in series [1] (setting [5]), the “Solubility in FaSSIF (in words)” value is reported as “relatively high solubility”, the “Solubility in FeSSIF (in words)” value is on record as “relatively high solubility” and the “Solubility in saline / 0.9% sodium chloride (in words)” value is “low solubility”. In addition, in series [1] (Fed State Simulated Intestinal Fluid, pH 4.9 to 5.0, room temperature, as free acid, 1440 min), the “Solubility in FeSSIF” value is 858 µg/mL. Further, the Appearance result in series [2] (2-8° C., 3 wk, listed as 25HC3S diethanolamine) was “White, free flowing powder with clumping”. In addition, the Appearance entry in series [2] (2-8° C., 5 wk) was “White, free flowing powder with clumping”. Further, the Appearance result in series [2] (80° C., 3 wk, listed as 25HC3S diethanolamine) was “White, free flowing powder with clumping”. The Appearance result in series [2] (80° C., 5 wk) is “White, free flowing powder with clumping”. Further, in series [3] (setting [6]), the “pH of the solubility sample, 0.9% Sodium Chloride” value (“pH … 0.9% Sodium Chloride” for short) stood at 7.9; the “pH of the solubility sample, 5% Dextrose” value was 7.2; the “pH of the solubility sample, FaSSIF” value is 6.5; the “pH of the solubility sample, FeSSIF” value came to 4.9. Moreover, the “pH of the solubility sample, Water” value in series [3] (setting [6]) was found to be 8.2. The “pH of the solubility sample, FaSSGF” value in series [3] is given as 1.6. Further, the “First significant endothermic transition (DSC)” value in series [4] (listed as diethanolamine) is ~181 °C.
As to `CC(CCCC(C)(C)O)C1CCC2C3CC=C4CC(OS(=O)(=O)O)CCC4(C)C3CCC12C` (stereo not shown) [Salt #12], in series [1] (room temperature), the “Solubility in FaSSGF (in words)” value is listed as “high solubility”, the “Solubility in FaSSIF (in words)” value is listed as “high solubility” and the “Solubility in FeSSIF (in words)” value is “high solubility”. In addition, the “Solubility in FaSSIF (in words)” value in series [1] (room temperature, listed as crystalline 25HC3S t-butylammonium) is listed as “relatively high solubility”. Also, the Appearance result in series [2] (2-8° C., 3 wk, listed as 25HC3S t-butylammonium) is on record as “White, free flowing powder with clumping”. In addition, the Appearance result in series [2] (2-8° C., 5 wk) is recorded as “White, free flowing powder with clumping”. In addition, the Appearance result in series [2] (80° C., 3 wk, listed as 25HC3S t-butylammonium) is given as “White, free flowing powder with clumping”. Besides, the Appearance result in series [2] (80° C., 5 wk) is reported as “White, free flowing powder with clumping”. In addition, in series [3] (setting [7]), the “pH … 0.9% Sodium Chloride” value is reported as 8.4; the “pH of the solubility sample, 5% Dextrose” value is 7.2; the “pH of the solubility sample, FaSSIF” value is listed as 6.5; the “pH of the solubility sample, Water” value stood at 8.5. In series [3], the “pH of the solubility sample, FaSSGF” value was determined as 1.6 and the “pH of the solubility sample, FeSSIF” value is reported as 5.0. Moreover, in series [4] (listed as t-butylammonium), the “First significant endothermic transition (DSC)” value was ~201 °C.
In the case of `CC(CCCC(C)(C)O)C1CCC2C3CC=C4CC(OS(=O)(=O)O)CCC4(C)C3CCC12C` (stereo not shown) [Salt #13], the “Solubility in ethanol (in words)” value in series [1] (EtOH, room temperature) is “did not reach saturation”. In series [1] (setting [8]), the “Solubility in FaSSGF (in words)” value is on record as “low solubility”, the “Solubility in methanol (in words)” value is given as “relatively high solubility” and the “Solubility in saline / 0.9% sodium chloride (in words)” value is recorded as “low solubility”. In series [1] (as free acid), the “Solubility in FaSSGF” value is “no solubilized drug was detected”. For the same compound, the “Solubility in methanol (in words)” value in series [1] (room temperature) is reported as “did not reach saturation”. The Appearance entry in series [2] (2-8° C., 3 wk, listed as 25HC3S magnesium) is “White, free flowing powder, no clumping”. Further, the Appearance result in series [2] (60° C., 1 wk (after 3 weeks at 2-8° C.), listed as 25HC3S magnesium) is reported as “Brown, melted material stuck to bottom”. Further, the “Appearance after 3 weeks at 80° C.” value in series [2] (80° C., 3 weeks) is given as “completely burned”. Besides, the Appearance entry in series [2] (80° C., 3 wk, listed as 25HC3S magnesium) is listed as “Dark brown, melted material stuck to”. In series [3] (listed as 25HC3S magnesium), the “pH … 0.9% Sodium Chloride” value came out at 8.3; the “pH of the solubility sample, 5% Dextrose” value came out at 7.1; the “pH of the solubility sample, FaSSIF” value is reported as 6.5; the “pH of the solubility sample, FeSSIF” value turned out to be 4.9. Also, the “pH of the solubility sample, Water” value in series [3] (listed as 25HC3S magnesium) worked out at 8.7. Further, the “pH of the solubility sample, FaSSGF” value in series [3] is 1.6. Further, in series [4] (listed as crystalline 25HC3S magnesium), the “Decomposition temperature (DSC)” value is “about 139 °C”.
By solubility is commonly meant the dissolved amount per volume that the medium holds. Regarding `C[C@H](CCCC(C)(C)O)[C@H]1CC[C@H]2[C@@H]3CC=C4C[C@@H](OS(=O)(=O)O)CC[C@]4(C)[C@H]3CC[C@]12C` [Salt #14], the solubility at 24 h in series [1] (0.9% nacl, room temperature, as free acid, ND = not detected, detection limit 0.7 μg/mL, read-out: Solubility in 0.9% NaCl) stood at 8 µg/mL; in series [1] (5% dextrose, room temperature, as free acid, ND = not detected, detection limit 0.7 μg/mL, read-out: Solubility in 5% Dextrose), 38 µg/mL; in series [1] (acetonitrile, organic solvent or mixture, acetonitrile, room temperature, as free acid, read-out: Solubility in ACN), 800 µg/mL; in series [1] (ethanol, organic solvent or mixture, ethanol, room temperature, as free acid, ≥ = did not reach saturation, read-out: Solubility in EtOH), 1700 µg/mL; in series [1] (fassif, room temperature, as free acid, read-out: Solubility in FaSSIF) it was 72 µg/mL; in series [1] (fessif, room temperature, as free acid, read-out: Solubility in FeSSIF) it was 676 µg/mL. Also, the solubility at 24 h in series [1] (isopropyl alcohol, organic solvent or mixture, isopropyl alcohol, room temperature, as free acid, read-out: Solubility in IPA) was 900 µg/mL; in series [1] (methanol, organic solvent or mixture, methanol, room temperature, as free acid, ≥ = did not reach saturation, read-out: Solubility in MeOH), 5900 µg/mL; in series [1] (water, room temperature, as free acid, ND = not detected, detection limit 0.7 μg/mL, read-out: Solubility in H2O), 40 µg/mL. In series [1] (room temperature), the “Solubility in FaSSGF (in words)” value is recorded as “low solubility”. The “Solubility in FaSSGF” value in series [1] (as free acid) is listed as “no solubilized drug was detected”. For the same compound, the Appearance result in series [2] (2-8° C., 3 wk) was “White, free flowing powder with clumping”; in series [2] (2-8° C., 5 wk) it was “White, free flowing powder with clumping”. The “pH … 0.9% Sodium Chloride” value in series [3] came to 8.4. Further, the “pH of the solubility sample, 5% Dextrose” value in series [3] was 7.5. Besides, the “pH of solubility sample solution in 5% dextrose” value in series [3] (5% dextrose (medium pH 4.7)) was found to be 7.5. In series [3], the “pH of the solubility sample, FaSSGF” value amounted to 1.6. Besides, the “pH of the solubility sample, FaSSIF” value in series [3] worked out at 6.5. Further, in series [3], the “pH of the solubility sample, FeSSIF” value is reported as 5.0. Also, the “pH of the solubility sample, Water” value in series [3] is on record as 8.8. In addition, the “Decomposition temperature (DSC)” value in series [4] was “about 186 °C”. In addition, in series [4], the “First significant endothermic transition (DSC)” value is ~186 °C.
